Each compound was assayed on IL-1β production in PMA-differentiated THP-1 cells (assay: IL-1β production in PMA-differentiated THP-1 cells stimulated with gramicidin (hTHP-1 assay containing 2% fetal bovine serum)). Conditions: Homo sapiens, THP-1, Table B1; 2% fetal bovine serum; cells printed as numeric bound; read-out: hTHP-1 IC50 (Average IC50 of compounds in hTHP-1 assay).
Assay type: cell-based, human
Method in brief: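 THP-1 cells were differentiated with PMA 20 ng/ml for 16-18 h, then plated at 50,000 cells/well in RPMI with 2% FBS. They were preincubated 1 h with compound (100–0.0017 μM final, 0.37% DMSO), then stimulated with gramicidin 5 μM for 2 h. Supernatant IL-1β was measured by HTRF.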

Row | IC50 | Structure (SMILES)
1 | > 30000 nM | CC(C)c1cc2c(c(C(C)C)c1CC(=O)N=S(N)(=O)c1cnc(C(C)(O)CO)s1)COC2 (single isomer, unassigned) [Example 339, (R, S) or (S, S)-N-(amino(2-(1,2-dihydroxypropan-2-yl)thiazol-5-yl)(oxo)-λ^6-sulfaneylidene)-2-(4,6-diisopropyl-1,3-dihydroisobenzofuran-5-yl)acetamide]
2 | > 30000 nM | CC(C)(O)c1ncc([S@](N)(=O)=NC(=O)Cc2cc3c(c4c2CCC4)CCC3)s1 [Compound 259b]
3 | > 30000 nM | CC(C)c1ncnc(C(C)C)c1CC(=O)N=S(N)(=O)c1cnc(C(C)(C)O)s1 (stereo not shown) [Compound 260]
4 | > 30000 nM | CC(C)c1cc2c(cnn2C)c(C(C)C)c1CC(=O)N=S(N)(=O)c1ncc(C(C)(C)O)s1 (stereo not shown) [Compound 1341]

Same assay, conditions: Homo sapiens, THP-1, Table B1; 2% fetal bovine serum; class symbols; read-out: hTHP-1 IC50 (Average IC50 of compounds in hTHP-1 assay)

Row | IC50 | Structure (SMILES)
5 | 200 to 1000 nM | CC(C)c1cc2c(c(C(C)C)c1CC(=O)N=S(N)(=O)c1cnc(C(C)(O)CO)s1)COC2 (single isomer, unassigned) [Example 338]
6 | 5000 to 30000 nM | CC(C)c1cc2c(c(C(C)C)c1CC(=O)N=S(=O)(NC#N)c1cc(C(C)(C)O)cs1)COC2 (stereo in doubt) [Example 343, (S)-N-(cyanamido(4-(2-hydroxypropan-2-yl)thiophen-2-yl)(oxo)-λ^6-sulfaneylidene)-2-(4,6-diisopropyl-1,3-dihydroisobenzofuran-5-yl)acetamide]
7 | 200 to 1000 nM | CC(C)c1cc2c(c(C(C)C)c1CC(=O)N=S(=O)(NC#N)c1cc(C(C)(C)O)cs1)COC2 (stereo in doubt) [Example 344, (R)-N-(cyanamido(4-(2-hydroxypropan-2-yl)thiophen-2-yl)(oxo)-λ^6-sulfaneylidene)-2-(4,6-diisopropyl-1,3-dihydroisobenzofuran-5-yl)acetamide]
8 | 1000 to 5000 nM | CC(C)c1cc(F)cc(C(C)C)c1CC(=O)N=S(N)(=O)c1ccc(C(C)(C)O)cc1 (stereo not shown) [Example 1, 2-(4-Fluoro-2,6-diisopropylphenyl)-N-(4-(2-hydroxypropan-2-yl)phenylsulfonimidoyl)acetamide]
9 | 200 to 1000 nM | CC(C)c1cc(F)cc(C(C)C)c1CC(=O)N=S(N)(=O)c1ncc(C(C)(C)O)s1 (stereo not shown) [Example 7, 2-(4-Fluoro-2,6-diisopropylphenyl)-N-(5-(2-hydroxypropan-2-yl)thiazole-2-sulfonimidoyl)acetamide]
10 | 1000 to 5000 nM | CC(C)c1cc(F)cc(C(C)C)c1CC(=O)NS(=N)(=O)c1ncc(C(C)(C)O)s1 [Example 8, (S)- and (R)-2-(4-fluoro-2,6-diisopropylphenyl)-N-(5-(2-hydroxypropan-2-yl)thiazole-2-sulfonimidoyl)acetamide]

Same assay, conditions: Homo sapiens, THP-1, Table B2; 2% fetal bovine serum; cells printed as numeric bound; read-out: hTHP-1 IC50 (Average IC50 of compounds in hTHP-1 assay)

Row | IC50 | Structure (SMILES)
11 | > 30000 nM | CC(C)c1nc(C(F)(F)F)nc(C(C)C)c1CC(=O)N=S(N)(=O)c1cnc(C(C)(C)O)s1 (single isomer, unassigned) [Example 397, (R) or (S)-N-(amino(2-(2-hydroxypropan-2-yl)thiazol-5-yl)(oxo)-λ^6-sulfaneylidene)-2-(4,6-diisopropyl-2-(trifluoromethyl)pyrimidin-5-yl)acetamide]
12 | > 30000 nM | CCn1cc(F)c(S(N)(=O)=NC(=O)Cc2c(C(C)C)cc3c(c2C(C)C)COC3)n1 (single isomer, unassigned) [Example 399, (S) or (R)-N-(amino(1-ethyl-4-fluoro-1H-pyrazol-3-yl)(oxo)-λ^6-sulfaneylidene)-2-(4,6-diisopropyl-1,3-dihydroisobenzofuran-5-yl)acetamide]

Same assay, conditions: Homo sapiens, THP-1, Table B2; 2% fetal bovine serum; class symbols; read-out: hTHP-1 IC50 (Average IC50 of compounds in hTHP-1 assay)

Row | Structure (SMILES) | IC50
13 | COc1cc(-c2cccc(C(C)C)c2CC(=O)N=S(N)(=O)c2cnc(C(C)(O)CO)s2)ccn1 (single isomer, unassigned) [Example 351, N-(amino(2-((S or R)-1,2-dihydroxypropan-2-yl)thiazol-5-yl)(oxo)-λ^6-sulfaneylidene)-2-(2-isopropyl-6-(2-methoxypyridin-4-yl)phenyl)acetamide] | 200 to 1000 nM
14 | CC(C)c1cc(C#N)cc(C(C)C)c1CC(=O)N=S(=O)(NC#N)c1sc(C(C)(C)O)nc1CO (single isomer, unassigned) [Example 358] | 40 to 200 nM
15 | CC(C)c1cc(C#N)c(F)c(C(C)C)c1CC(=O)N=S(=O)(NC#N)c1cnc(C(C)(O)CO)s1 (single isomer, unassigned) [Example 359, N-(cyanamido(2-((R or S)-1,2-dihydroxypropan-2-yl)thiazol-5-yl)(oxo)-λ^6-sulfaneylidene)-2-(4-cyano-3-fluoro-2,6-diisopropylphenyl)acetamide] | 1000 to 5000 nM

Other lines, results leading:

Row | IC50 | Structure (SMILES)
16 | 5000 to 30000 nM | CC(C)c1cc(C#N)c(F)c(C(C)C)c1CC(=O)N=[S@](=O)(NC#N)c1cnc([C@](C)(O)CO)s1 (single isomer, unassigned) [Example 371]
17 | 1000 to 5000 nM | CC(C)c1nc(C(F)(F)F)nc(C(C)C)c1CC(=O)N=S(N)(=O)c1cnc(C(C)(C)O)s1 (single isomer, unassigned) [Example 396, (S) or (R)-N-(amino(2-(2-hydroxypropan-2-yl)thiazol-5-yl)(oxo)-λ^6-sulfaneylidene)-2-(4,6-diisopropyl-2-(trifluoromethyl)pyrimidin-5-yl)acetamide]
18 | 200 to 1000 nM | CCn1cc(F)c(S(N)(=O)=NC(=O)Cc2c(C(C)C)cc3c(c2C(C)C)COC3)n1 (single isomer, unassigned) [Example 398, (R) or (S)-N-(amino(1-ethyl-4-fluoro-1H-pyrazol-3-yl)(oxo)-λ^6-sulfaneylidene)-2-(4,6-diisopropyl-1,3-dihydroisobenzofuran-5-yl)acetamide]
19 | 1000 to 5000 nM | COc1cc(-c2cccc(C(C)C)c2CC(=O)N=S(=O)(NC#N)c2cnc(C(C)(O)CO)s2)ccn1 (stereo in doubt) [Example 367, N-(cyanamido(2-((S)-1,2-dihydroxypropan-2-yl)thiazol-5-yl)(oxo)-λ^6-sulfaneylidene)-2-(2-isopropyl-6-(2-methoxypyridin-4-yl)phenyl)acetamide]

Same assay, conditions: Table B1; 2% fetal bovine serum; class symbols; read-out: hTHP-1 IC50 (Average IC50 of compounds in hTHP-1 assay)

Row | IC50 | Structure (SMILES)
20 | 8 to 40 nM | CC(C)c1cc(C#N)c(F)c(C(C)C)c1CC(=O)N=S(N)(=O)c1cnc(C(C)(O)CO)s1 (single isomer, unassigned) [Example 337, (S, R) or (R, R)-N-(amino(2-(1,2-dihydroxypropan-2-yl)thiazol-5-yl)(oxo)-λ^6-sulfaneylidene)-2-(4-cyano-3-fluoro-2,6-diisopropylphenyl) acetamide]

Same assay, conditions: Table B2; 2% fetal bovine serum; class symbols; read-out: hTHP-1 IC50 (Average IC50 of compounds in hTHP-1 assay)

Row | IC50 | Structure (SMILES)
21 | 200 to 1000 nM | CC(C)c1cc(C#N)cc(C(C)C)c1CC(=O)N=S(N)(=O)c1sc(C(C)(C)O)nc1CCO (single isomer, unassigned) [Example 383, (R) or (S)-N-(amino(4-(2-hydroxyethyl)-2-(2-hydroxypropan-2-yl)thiazol-5-yl)(oxo)-λ^6-sulfaneylidene)-2-(4-cyano-2,6-diisopropylphenyl)acetamide]
22 | 5000 to 30000 nM | CC(C)c1cc(C#N)cc(C(C)C)c1CC(=O)N=S(N)(=O)c1sc(C(C)(C)O)nc1CCO (single isomer, unassigned) [Example 384, (S) or (R)-N-(amino(4-(2-hydroxyethyl)-2-(2-hydroxypropan-2-yl)thiazol-5-yl)(oxo)-λ^6-sulfaneylidene)-2-(4-cyano-2,6-diisopropylphenyl)acetamide]
23 | 200 to 1000 nM | CC(C)c1cc(C#N)cc(C(C)C)c1CC(=O)N=S(N)(=O)c1nc(CO)c(C(C)(C)O)s1 (single isomer, unassigned) [Example 385, (R) or (S)-N-(amino(4-(hydroxymethyl)-5-(2-hydroxypropan-2-yl)thiazol-2-yl)(oxo)-λ^6-sulfaneylidene)-2-(4-cyano-2,6-diisopropylphenyl)acetamide]
24 | 5000 to 30000 nM | CC(C)c1cc(C#N)cc(C(C)C)c1CC(=O)N=S(N)(=O)c1nc(CO)c(C(C)(C)O)s1 (single isomer, unassigned) [Example 386, (S) or (R)-N-(amino(4-(hydroxymethyl)-5-(2-hydroxypropan-2-yl)thiazol-2-yl)(oxo)-λ^6-sulfaneylidene)-2-(4-cyano-2,6-diisopropylphenyl)acetamide]
25 | 200 to 1000 nM | CCn1cc(F)c(S(N)(=O)=NC(=O)Cc2c(C(C)C)cc3c(c2C(C)C)OC(F)(F)O3)n1 (single isomer, unassigned) [Example 400, (R) or (S)-N-(amino(1-ethyl-4-fluoro-1H-pyrazol-3-yl)(oxo)-λ^6-sulfaneylidene)-2-(2,2-difluoro-4,6-diisopropylbenzo[d][1,3]dioxol-5-yl)acetamide]
26 | 5000 to 30000 nM | CCn1cc(F)c(S(N)(=O)=NC(=O)Cc2c(C(C)C)cc3c(c2C(C)C)OC(F)(F)O3)n1 (single isomer, unassigned) [Example 401, (S) or (R)-N-(amino(1-ethyl-4-fluoro-1H-pyrazol-3-yl)(oxo)-λ^6-sulfaneylidene)-2-(2,2-difluoro-4,6-diisopropylbenzo[d][1,3]dioxol-5-yl)acetamide]
27 | 200 to 1000 nM | CC(C)c1cc(C#N)c(F)c(C(C)C)c1CC(=O)N=S(N)(=O)c1cnc(C(O)(CO)CO)s1 (single isomer, unassigned) [Example 402, (R) or (S)-N-(amino(oxo) (2-(1,2,3-trihydroxypropan-2-yl)thiazol-5-yl)-λ^6-sulfaneylidene)-2-(4-cyano-3-fluoro-2,6-diisopropylphenyl)acetamide]
28 | 5000 to 30000 nM | CC(C)c1cc(C#N)c(F)c(C(C)C)c1CC(=O)N=S(N)(=O)c1cnc(C(O)(CO)CO)s1 (single isomer, unassigned) [Example 403, (S) or (R)-N-(amino(oxo) (2-(1,2,3-trihydroxypropan-2-yl)thiazol-5-yl)-λ^6-sulfaneylidene)-2-(4-cyano-3-fluoro-2,6-diisopropylphenyl)acetamide]

Source: patent US20230059136A1, “THE COMPOUNDS AND COMPOSITIONS FOR TREATING CONDITIONS ASSOCIATED WITH NLRP ACTIVITY” (Novartis AG, priority 2018, published 2023)
